According to PubChem BioAssay (NCI):
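All cell lines were grown in 96-well plates and treated with compound for 48 hours. TGI: concentration producing complete growth inhibition.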

How the values were obtained:
Assay in all cases: NCI anticancer screen, dose series, 48 h
[1] = system: NCI-H23 lung
[2] = system: SW-620 colon
[3] = system: EKVX NSCLC
[4] = system: SF-539 CNS
[5] = system: HOP-62 NSCLC
[6] = system: OVCAR-3 ovarian
[7] = system: HS 578T breast
[8] = system: IGROV1 ovarian
[9] = system: TK-10 renal
[10] = system: NCI-H460 lung
[11] = system: HCT-116 colon
[12] = system: SK-MEL-5 melanoma
[13] = system: RXF 393 renal
[14] = system: HCC-2998 colon
[15] = system: 786-0 renal
[16] = system: SN12C renal
[17] = system: SK-MEL-2 melanoma
[18] = system: ACHN renal
[19] = system: RPMI-8226 leukemia
[20] = system: HT29 colon
[21] = system: BT-549 breast
[22] = system: OVCAR-5 ovarian
[23] = system: MALME-3M melanoma
[24] = system: PC-3 prostate
[25] = system: MOLT-4 leukemia
[26] = system: COLO 205 colon
[27] = system: CAKI-1 renal
[28] = system: K-562 leukemia
[29] = system: UO-31 renal
[30] = system: HL-60(TB) leukemia
[31] = system: SK-OV-3 ovarian
[32] = system: UACC-62 melanoma
[33] = system: SF-295 CNS
[34] = system: HCT-15 colon
[35] = system: DU-145 prostate
[36] = system: M14 melanoma
[37] = system: T-47D breast
[38] = system: HOP-92 NSCLC
[39] = system: A549 NSCLC
[40] = system: A498 renal
[41] = system: OVCAR-8 ovarian
[42] = system: SK-MEL-28 melanoma
[43] = system: NCI/ADR-RES ovarian
[44] = system: SNB-19 CNS
[45] = system: NCI-H522 lung
[46] = system: U251 CNS
[47] = system: MDA-MB-435
[48] = system: UACC-257 melanoma
[49] = system: SNB-75 CNS
[50] = system: LOX IMVI melanoma
[51] = system: SF-268 CNS
[52] = system: MDA-MB-231 breast
[53] = system: OVCAR-4 ovarian
[54] = system: SR leukemia
[55] = system: MCF7 breast
[56] = system: KM12 colon
[57] = system: NCI-H226 lung

Measured: TGI

CC(C)CC[C@H](O)[C@@H](C)[C@H]1[C@@H](OC2OC(C)C(O)C(O)C2O)C[C@H]2[C@@H]3CC=C4C[C@@H](O)CC[C@]4(C)[C@H]3[C@@H](O)C[C@]12C (stereo not given in full)
40.4 µM: [8]
2360 nM: [7]
> 64 µM: [27]
3.21 µM: [32]
> 23.4 µM: [36]
508 nM: [25]
229 nM: [19]
6.7 µM: [38]
59.1 µM: [49]
222 nM: [33]
> 68.7 µM: [5]
> 58 µM: [12]
422 nM: [28]
> 68.9 µM: [23]
> 19.9 µM: [2]
> 34.9 µM: [40]
6.47 µM: [42]
21.7 µM: [29]
2910 nM: [48]
7.17 µM: [26]
578 nM: [4]
not listed: [53] | [54] | [55] | [56] | [57]
> 100 µM: all other assays above

c1ccc2c(c1)sc1c3cnccc3ccc21
> 100000 nM: [4] | [7] | [19] | [25] | [28] | [33] | [48]
not listed: [13] | [24] | [38] | [41]
> 100 µM: all other assays above
